{"source": "patent US9243254B2", "about": "“Method for transforming a bacterium belonging to the streptococcus genus by natural competence” (priority 2009, dated 2016)", "experiment_in_all_cases": "Natural transformation in CDM upon addition of synthetic peptide", "type_in_all_cases": "cell-based, Streptococcus thermophilus", "settings_in_all_cases": "1 μM LPYFAGCL, 1 μg/mL pUC18_stu0855::P32cat", "key": {"S. thermophilus DGCC7809": {"tested_on": "S. thermophilus DGCC7809", "experimental": "(§1) Similarly to the protocol used in example 4, various S. thermophilus strains, including LMD-9, CNRZ1066 and LMG18311 used as controls, were pre-cultivated in M17-lactose medium. The cells of the precultures were harvested (5000 g, 9 minutes, 20° C.) and washed twice in CDM and then resuspended in CDM. The washed cells were diluted in fresh CDM medium to obtain an optical density of 0.05, and then incubated at 37° C. After 1.5 h of incubation, in one set of experiment, 1 μM of one of the tested synthetic peptides (LPYFAGCL) (SEQ ID NO: 85) and 1 μg/mL of pGIUD0855cat DNA were added to the culture, whereas 1 μg/mL of DNA but no synthetic peptide was added to the second set of experiment. Plasmid pGIUD0855cat is a pUC18-derivative containing a chloramphenicol resistance cassette flanked by 1-kb fragments corresponding to the upstream and downstream regions of stu0855. Upon transformation, it promotes the genetic replacement of stu0855 by P32-cat through homologous recombination (FIG. 7). The cultures were grown during 6 hours and serial dilutions were plated on the surface of M17-lactose agar medium containing 5 μg/mL of chloramphenicol to measure transformation efficiency. Transformed S. thermophilus cells were selected at 37° C.; when transformants were obtained, the transformation efficiency was calculated and is given in Table 9."}, "S. thermophilus DGCC7666": {"tested_on": "S. thermophilus DGCC7666", "experimental": "as §1"}, "S. thermophilus DGCC7790": {"tested_on": "S. thermophilus DGCC7790", "experimental": "as §1"}, "S. thermophilus DGCC7796": {"tested_on": "S. thermophilus DGCC7796", "experimental": "as §1"}, "S. thermophilus DGCC7694": {"tested_on": "S. thermophilus DGCC7694", "experimental": "as §1"}, "S. thermophilus DGCC7853": {"tested_on": "S. thermophilus DGCC7853", "experimental": "as §1"}, "S. thermophilus DGCC3367": {"tested_on": "S. thermophilus DGCC3367", "experimental": "as §1"}, "S. thermophilus DGCC7854": {"tested_on": "S. thermophilus DGCC7854", "experimental": "as §1"}, "S. thermophilus DGCC7785": {"tested_on": "S. thermophilus DGCC7785", "experimental": "as §1"}, "S. thermophilus DGCC715": {"tested_on": "S. thermophilus DGCC715", "experimental": "as §1"}, "S. thermophilus DGCC7773": {"tested_on": "S. thermophilus DGCC7773", "experimental": "as §1"}, "S. thermophilus DGCC7710": {"tested_on": "S. thermophilus DGCC7710", "experimental": "as §1"}}}
{"sequence": "LPYFAGCL (fragment) [synthetic peptide corresponding to a C-terminal fragment of Shp316]", "values": [{"measurement": "Transformation rate, With peptide addition", "setting": "S. thermophilus DGCC7809", "value": "5.8 × 10^−4"}, {"measurement": "Transformation rate, With peptide addition", "setting": "S. thermophilus DGCC7666", "value": "4.2 × 10^−2"}, {"measurement": "Transformation rate, With peptide addition", "setting": "S. thermophilus DGCC7790", "value": "4.3 × 10^−2"}, {"measurement": "Transformation rate, With peptide addition", "setting": "S. thermophilus DGCC7796", "value": "6.9 × 10^−2"}, {"measurement": "Transformation rate, With peptide addition", "setting": "S. thermophilus DGCC7694", "value": "3.9 × 10^−2"}, {"measurement": "Transformation rate, With peptide addition", "setting": "S. thermophilus DGCC7853", "value": "4.9 × 10^−4"}, {"measurement": "Transformation rate, With peptide addition", "setting": "S. thermophilus DGCC3367", "value": "1.8 × 10^−3"}, {"measurement": "Transformation rate, With peptide addition", "setting": "S. thermophilus DGCC7854", "value": "5.3 × 10^−3"}, {"measurement": "Transformation rate, With peptide addition", "setting": "S. thermophilus DGCC7785", "value": "4.1 × 10^−5"}, {"measurement": "Transformation rate, With peptide addition", "setting": "S. thermophilus DGCC715", "value": "1.2 × 10^−2"}, {"measurement": "Transformation rate, With peptide addition", "setting": "S. thermophilus DGCC7773", "value": "1.5 × 10^−1"}, {"measurement": "Transformation rate, With peptide addition", "setting": "S. thermophilus DGCC7710", "value": "1 × 10^−2"}]}
